# In patent US20020106348A1, “Cancer therapeutics involving the administration of 2-methoxyestradiol and an agent that increases intracellular superoxide anion” (priority 2000, published 2002):
# pIC50: −log10 of the molar value. Where a name gives a salt, the structure may show the parent alone. Read-outs that look alike come from different tables or passages of the source.
# Experiments:
# HL-60 = experiment: Apoptosis / nucleosomal DNA fragmentation in HL-60 cells; assay type: cell-based, human; details: for DNA fragmentation (apoptosis) in HL-60 cells: estrogen derivatives, FIG. 20; for effect on 2-ME-induced apoptosis: HL-60, 1 μM 2-ME plus antioxidant
# CuZnSOD = experiment: Inhibition of CuZnSOD by estrogen derivatives; assay type: biochemical; details: FIG. 20
# [1] = cited from earlier work; for elimination half-life: intravenous
# CLL cells [2] = experiment: Cellular O2^- by hydroethidine flow cytometry, CLL cells; assay type: cell-based, human; details: addition of NAC to 2-ME-treated CLL cells
# Protocol: The method using hydroethidine to detect O2^− in tissue sections was adapted for quantitation of intracellular O2^− by flow cytometry analysis. This assay is based on the unique chemical properties of hydroethidine, a weak blue fluorescent dye which is selectively converted by O2^− to ethidium with a bright red fluorescence. The control and drug-treated cells (1.5×10^6/sample) were incubated with hydroethidine (20 ng/ml) for 60 min, washed twice with 3 ml PBS, resuspended in 2 ml PBS, and then analyzed within 1 h by flow cytometry, using the red laser channel.
# CLL cells [3] = details: for protection from toxic effect of 2-ME: antioxidant added to 2-ME-treated CLL cells
# [4] = test system: leukemia cells from a CML (chronic myelogenous leukemia) patient in relapsed blast crisis; experiment: Induction of apoptosis in primary leukemia cells from a CML patient; assay type: cell-based, human; details: in vitro
# HL-60 cells = experiment: Cellular O2^- by flow cytometry, HL-60 cells; assay type: cell-based, human; details: 0.25 μM
# [5] = molecular target: NADH:ubiquinone oxidoreductase; phorbol ester-induced ornithine decarboxylase (ODC); details: Fang et al, 1998; read-out: IC50 values, NADH:ubiquinone oxidoreductase inhibition / blocking ODC induction; cited from earlier work
# c-myc protein = c-myc protein expression in B CLL cells; assay type: cell-based, human; details: Rituxan alone
molecule,measurement,setting,value
C[C@]12CC[C@@H]3c4cc(O)c(O)cc4CC[C@H]3[C@@H]1CC[C@@H]2O [2-hydroxyestradiol],DNA fragmentation (apoptosis) in HL-60 cells,HL-60,induced DNA fragmentation
same,inhibition of SOD activity,CuZnSOD,substantially inhibited SOD activity
COc1cc2c(cc1O)CC[C@@H]1[C@@H]2CC[C@]2(C)C(=O)CC[C@@H]12 [2-methoxyestrone],DNA fragmentation (apoptosis) in HL-60 cells,HL-60,induced DNA fragmentation
same,inhibition of SOD activity,CuZnSOD,substantially inhibited SOD activity
C[C@]12CC[C@@H]3c4ccc(O)cc4CC[C@H]3[C@@H]1CC[C@@H]2O [17β-estradiol],DNA fragmentation (apoptosis) in HL-60 cells,HL-60,little DNA fragmentation
same,inhibition of SOD activity,CuZnSOD,minimal activity against SOD
"COc1cccc2c1C(=O)c1c(O)c3c(c(O)c1C2=O)C[C@@](O)(C(C)=O)C[C@@H]3O[C@H]1C[C@H](N)[C@H](O)[C@H](C)O1 [Daunorubicin, 5,12-Naphthacenedione, (8S-cis)-8-acetyl-10-[(3-amino-2,3,6-trideoxy-α-L-lyxo-hexanopyranosyl)oxy]-7,8,9,10-tetrahydro-6,8,11-trihydroxy-10-methoxy-, hydrochloride]",secreted into the bile,[1]; in vivo,~40%
same,elimination half-life,[1],about 19 hr
"COc1cccc2c1C(=O)c1c(O)c3c(c(O)c1C2=O)C[C@@](O)(C(=O)CO)C[C@@H]3O[C@H]1C[C@H](N)[C@H](O)[C@H](C)O1 [Doxorubicin, 5,12-Naphthacenedione, (8s-cis)-10-[(3-amino-2,3,6-trideoxy-α-L-lyxo-hexopyranosyl)oxy]-7,8,9,10-tetrahydro-6,8,1-trihydroxy-8-(hydroxyacetyl)-1-methoxy-hydrochloride]",elimination half-life,[1],about 30 hr
"CC(=O)N[C@@H](CS)C(=O)O [N-acetylcysteine, reference compound]",cellular O2^− in 2-ME-treated cells,CLL cells [2],reduced the accumulation of cellular O2^−
same,effect on 2-ME-induced apoptosis,HL-60,2-ME-induced apoptosis was significantly reduced
same,protection from toxic effect of 2-ME,CLL cells [3],protective effect
same,protection from toxic effect of 2-ME,CLL cells [3]; listed as NAC,protected the cells from the toxic effect of 2-ME
Nc1c(Br)cc(Br)cc1CN[C@H]1CC[C@H](O)CC1 [ambroxol],effect on 2-ME-induced apoptosis,HL-60,2-ME-induced apoptosis was significantly reduced
"Nc1ccn([C@@H]2O[C@H](CO)[C@@H](O)[C@@H]2O)c(=O)n1 [ara-C, reference compound]",apoptosis in primary CML cells,[4],resistant
COc1cccc2c1C(=O)c1c(O)c3c(c(O)c1C2=O)C[C@@](O)([C@H](C)O)C[C@@H]3O[C@H]1C[C@H](N)[C@H](O)[C@H](C)O1 [daunorubicinol],elimination half-life,[1],about 27 hr
"C=C(C)[C@H]1Cc2c(ccc3c2O[C@@H]2COc4cc(OC)c(OC)cc4[C@@H]2C3=O)O1 [rotenone, reference compound]",cellular O2^− content,HL-60 cells,increase of cellular O2^−
same,pIC50,[5],8.40 to 9.10
Rituxan: antibody specific for CD20 antigen on B lymphocyte,c-myc protein expression,c-myc protein,increased expression of c-myc protein
same,killing of CLL cells,"CLL cells [3]; Rituxan alone, various concentrations",did not result in any significant killing
same,enhancement of 2-ME activity,CLL cells [3]; cells sensitive or resistant to 2-ME,did not significantly enhance the activity of 2-ME
Sodium Arsenate [reference compound],sensitivity to single agent,CLL cells [3]; 2-ME-resistant CLL cells,insensitive to either drug alone
same,sensitivity to single agent,CLL cells [3]; CLL cells of the two sensitive patients,relatively sensitive
